Results on two compounds are retold here after patent publication US11497713B2, “Combination taxoid nanoemulsion with immunotherapy in cancer” (TargaGenix, Inc., priority 2017, dated 2022).

Read-outs that look alike come from different tables or passages of the source.

Data set [1] concerns PD-L1, PD-1, CD4, CD8 and Arginase-1 expression in tumor tissues. The data set can be described thus: RT-PCR and western blotting of Panc02 tumor tissues. The class given is in vivo, mouse. To be noted: anti-PD-L1 combination versus IgG treated group. The protocol: Cells and tumor tissues were washed twice with phosphate-buffered saline (PBS) and lysed in ice-cold lysis buffer containing 2% proteinase inhibitor (both from Sigma-Aldrich Co., St. Louis, Mo., USA). Cells were retrieved with a cell scraper, stirred and incubated on ice for 15 minutes. Mice tumor tissues were sonicated for 10 seconds on ice with sonicator. Lysates were centrifuged, supernatants were collected, and protein concentration was determined using the Bio-Rad protein assay (Bio-Rad Laboratories, Hercules, Calif., USA). The supernatants were diluted with lysis buffer to create equal concentrations of protein. […] Immunocomplexes were detected using western blotting (ECL Prime; GE Healthcare UK Ltd., Buckinghamshire, UK).
The expression level of PD-L1 and mRNA for other proteins was determined using real-time PCR as previously described. […] Relative quantifications of gene expression with qRT-PCR data were calculated relative to murine β-actin.
To investigate how the anticancer agents, induce PD-L1, PD-1, CD4, CD8 and Arginase-1 mRNA expression in pancreatic cancer tumor tissues, the mRNA level of PD-L1, PD-1, CD4, CD8, and Arginase-1 either alone or in combination of immune checkpoint inhibitor was determined by RT-PCR. […]
(In general: Immunoblotting shows a protein as a band on a membrane.)

In another data set the test system is PDAC. The note with it: cited from earlier work.
Data set [2] deals with human CFPAC-1 pancreatic tumor xenograft. The data set can be described thus: Human CFPAC-1 pancreatic tumor xenograft efficacy (FIG. 2). In kind it is in vivo, mice. The note with it: 240 mg/kg or 300 mg/kg total dose. (In general: A xenograft is tissue or cells of one species grown in another, often human tumour cells in immunodeficient mice.)
In data set [3] the test system is human PANC-1 pancreatic tumor xenograft. The data set can be described thus: Human PANC-1 pancreatic tumor xenograft, schedule comparison (FIG. 3). The class given is in vivo, RPCI SCID mice. The source says:
In FIG. 3, this experiment compared a q7d×3 with a q3d×3 schedule for paclitaxel and DHA-SBT-1214 using a human PANC-1 pancreatic tumor xenograft in RPCI SCID mice. […] Paclitaxel was only weakly effective, showing tumor growth delays of 18 days with q7d×3 schedule and 13 days with q3d×3 schedule and no CRs.

Data set [4] relates to drug-resistant colon tumor xenografts. The data set can be described thus: Drug-resistant colon tumor xenografts. In kind it is in vivo. The note with it: all surviving mice.
Another data set concerns prostate CD133+ cells. The data set can be described thus: Prostate cancer stem cells under stemness-promoting culture conditions. The class given is cell-based. On the procedure: In studies with DHA-SBT-1214 and prostate cancer stem cells, Applicants previously determined that low concentrations of DHA-SBT-1214 (0.1-1 μM) induced up to 80-90% death of the highly tumorigenic and highly drug-resistant prostate CD133^+ cells maintained under stemness-promoting culture conditions.

In data set [5] the test system is highly drug resistant tumor xenografts. The data set can be described thus: Highly drug resistant tumor xenografts in mice. To be noted: mouse, in vivo.
In data set [6] the test system is drug-resistant cell lines expressing MDR phenotypes. The note with it: cited from earlier work.
The target in data set [7] is P-glycoprotein (P-gp) transporter (Homo sapiens, UniProt P08183). The note with it: cited from earlier work.
P-glycoprotein (P-gp) transporter, sequence (P08183 whole entry): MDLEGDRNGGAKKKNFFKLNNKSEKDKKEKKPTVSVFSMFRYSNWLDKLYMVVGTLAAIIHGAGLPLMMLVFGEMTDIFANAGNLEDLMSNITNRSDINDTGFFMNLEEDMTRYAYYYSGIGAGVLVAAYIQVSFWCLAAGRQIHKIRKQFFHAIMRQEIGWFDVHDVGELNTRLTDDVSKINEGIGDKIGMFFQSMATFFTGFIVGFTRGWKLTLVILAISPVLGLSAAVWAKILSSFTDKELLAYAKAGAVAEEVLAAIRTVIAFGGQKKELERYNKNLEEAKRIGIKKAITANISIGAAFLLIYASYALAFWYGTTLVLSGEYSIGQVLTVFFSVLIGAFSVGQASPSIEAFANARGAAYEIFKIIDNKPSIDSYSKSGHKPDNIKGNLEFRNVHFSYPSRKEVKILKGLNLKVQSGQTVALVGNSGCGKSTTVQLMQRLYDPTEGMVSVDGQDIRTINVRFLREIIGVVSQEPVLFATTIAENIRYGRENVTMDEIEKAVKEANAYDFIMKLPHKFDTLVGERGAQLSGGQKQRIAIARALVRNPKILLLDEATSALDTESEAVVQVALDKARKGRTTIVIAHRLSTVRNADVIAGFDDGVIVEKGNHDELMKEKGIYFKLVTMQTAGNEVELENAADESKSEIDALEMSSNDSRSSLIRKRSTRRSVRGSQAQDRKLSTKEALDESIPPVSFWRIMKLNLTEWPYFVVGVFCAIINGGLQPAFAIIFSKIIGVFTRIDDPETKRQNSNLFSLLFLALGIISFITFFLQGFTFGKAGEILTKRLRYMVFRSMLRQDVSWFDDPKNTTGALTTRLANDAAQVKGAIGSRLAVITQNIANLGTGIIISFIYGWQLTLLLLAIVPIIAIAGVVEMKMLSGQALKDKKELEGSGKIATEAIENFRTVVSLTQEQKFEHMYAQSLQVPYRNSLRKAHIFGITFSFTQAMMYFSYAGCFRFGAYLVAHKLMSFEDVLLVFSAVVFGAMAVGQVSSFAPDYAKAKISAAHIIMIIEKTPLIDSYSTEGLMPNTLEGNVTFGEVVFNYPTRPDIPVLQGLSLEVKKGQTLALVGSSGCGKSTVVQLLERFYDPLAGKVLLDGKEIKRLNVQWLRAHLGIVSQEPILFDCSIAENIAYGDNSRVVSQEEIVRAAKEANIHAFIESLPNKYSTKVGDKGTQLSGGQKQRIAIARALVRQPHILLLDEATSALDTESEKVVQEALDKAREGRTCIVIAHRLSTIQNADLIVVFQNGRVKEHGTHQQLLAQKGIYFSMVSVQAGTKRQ

For the compound `Nc1ccn([C@@H]2O[C@H](CO)[C@@H](O)C2(F)F)c(=O)n1` [gemcitabine], the “PD-1 and CD4 mRNA level” value in data set [1] is “not significantly higher”. The median overall survival with PDAC (MPACT Phase III clinical trial) is recorded as 6.6 months; in the data set with PDAC (randomized Phase III trial, gemcitabine versus 5-FU), 5.65 months.
On to `CC/C=C\C/C=C\C/C=C\C/C=C\C/C=C\C/C=C\CCC(=O)O[C@@H](C(=O)O[C@H]1C[C@@]2(O)[C@@H](OC(=O)c3ccccc3)[C@@H]3[C@]4(OC(C)=O)CO[C@@H]4C[C@H](O)[C@@]3(C)C(=O)[C@H](OC(=O)C3CC3)C(=C1C)C2(C)C)[C@H](C=C(C)C)NC(=O)OC(C)(C)C` [DHA-SBT-1214, Docosahexaenoic acid conjugate of SBT-1214], for which the weight loss result in [2] is given as “negligible”. In data set [3] (300 mg/kg total dose), the toxic deaths result is “one toxic death”. The “complete responses (CRs)” value in data set [3] (PANC-1 xenograft) is “achieved CRs and essentially were cured”. In data set [3] (both schedules (q7d×3 and q3d×3)), this compound displayed a tumor growth delay of over 90 days. Also, the MTD in [3] (total dosage (80 mg/kg×3 inj)) stood at 240 mg/kg. Moreover, in [4], the tumor growth delay is given as over 167 days and the tumor regression entry is “complete regression”. In addition, the cell death with prostate CD133+ cells (0.1-1 μM) is listed as 80-90%. For the same compound, the “expression of pro-apoptotic proteins p53 and p21” value with prostate CD133+ cells (previously absent expression) is on record as “significant up-regulation”. Also, the efficacy entry in [5] was “remarkable efficacy”. Further, in data set [6], the “potency higher than those of paclitaxel and docetaxel” value is reported as “two-to-three”. Moreover, the “substrate for MDR mechanisms such as P-gp over-expression” value in [7] is “not a substrate”.
